Publication PMC11747885, “Potent inhibitors of the human RNA ligase Rlig1 highlights its role in RNA integrity maintenance under oxidative cellular stress” (Chemical Science, 2025)
Like-named read-outs stand apart in the source and are kept apart here. No end group written: not given here.

How the values were obtained:
Rlig1-AMP [1] = biological target: T1, Rlig1-AMP (Homo sapiens, UniProt Q8N999); experiment: Radioactive RNA ligation assay (hit validation, 10 µM test and IC50 determination); assay type: biochemical; details: for inhibition in radioactive ligation assay (hit validation): 10 µM compound, 37 °C, 20 min
T1 construct: made in house; host or cells: E. coli BL21 (DE3), pET15b-Rlig1

Rlig1-AMP [2] = biological target: T1, Rlig1-AMP; experiment: FRET-based high-throughput screening of inhibitors for Rlig1-AMP; assay type: biochemical
[3] = HTS hits, difference of raw data w/o and w enzyme
[4] = HTS hits, normalized value (npi)
[5] = HTS hits, MedChemExpress library
[6] = HTS hits, difference of raw data without and with enzyme
[7] = HTS hits, normalised value of 1-D Distance
[8] = sheet HTS hits, MedChemExpress library
[9] = sheet HTS hits, difference of raw data w/o and w enzyme

T1 sequence (Q8N999 whole entry): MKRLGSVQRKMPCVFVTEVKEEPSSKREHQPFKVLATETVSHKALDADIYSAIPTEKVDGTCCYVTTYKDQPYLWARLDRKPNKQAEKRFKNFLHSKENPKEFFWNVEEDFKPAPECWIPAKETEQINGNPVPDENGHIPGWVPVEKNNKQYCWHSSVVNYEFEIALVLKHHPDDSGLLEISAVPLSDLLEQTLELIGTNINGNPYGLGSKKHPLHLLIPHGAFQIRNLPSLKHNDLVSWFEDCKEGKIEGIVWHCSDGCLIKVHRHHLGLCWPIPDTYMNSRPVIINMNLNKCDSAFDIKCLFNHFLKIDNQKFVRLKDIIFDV

Compound	1-D Distance (Rlig1-AMP [2]; [3])	Raw data [w Enyzm] (Rlig1-AMP [2]; HTS hits, with enzyme)	Raw data [w/o Enzym] (Rlig1-AMP [2]; HTS hits, without enzyme)	1-D Distance (Rlig1-AMP [2]; [6])	1-D Distance.npi (Rlig1-AMP [2]; [7])	further results
CN(C)C/C=C/C(=O)Nc1ccc(C(=O)Nc2cccc(Nc3ncc(Cl)c(-c4c[nH]c5ccccc45)n3)c2)cc1.Cl [Compound 2, THZ1 (Hydrochloride), reference compound]	–	–	–	–	–	inhibition in radioactive ligation assay (hit validation) (Rlig1-AMP [1]): above 70%
Cc1cc(-c2cc(O)ccc2Cl)cc2nnc(Nc3ccc(OCCN4CCCC4)cc3)nc12.Cl [Compound 6, reference compound]	–	–	–	–	–	inhibition in radioactive ligation assay (hit validation) (Rlig1-AMP [1]): above 70%
Cn1nc(-c2ccc(C(F)(F)F)cc2)nc2c(=O)n(C)c(=O)nc1-2 [Compound 11, reference compound]	–	–	–	–	–	IC50 (in words) (Rlig1-AMP [1]; concentration-dependent radioactive ligation assay): nanomolar range
CC(C)c1nc2c([nH]1)-c1ccccc1C(=O)C2=O [KL1333]	578	12041	12619	–	–	1-D Distance.npi (Rlig1-AMP [2]; [4]): 96.7085
N[C@@H](CS)C(=O)O [L-Cysteine]	1124	9158	10282	–	–	–
N#Cc1cc(NS(=O)(=O)c2ccc(N)cc2)ccc1Oc1ccc(Cl)c(C(F)(F)F)c1 [Lp-PLA2-IN-3]	–	9448	–	555	–	1-D Distance.npi (Rlig1-AMP [2]; [5]): 92.9896
CN(C)CCOC(=O)COc1ccc(Cl)cc1.Cl [Meclofenoxate (hydrochloride)]	–	9480	11312	1832	–	1-D Distance.npi (Rlig1-AMP [2]; [5]): 72.0073
COS(=O)(=O)[O-].COc1cccc2c1nc1ccccc1[n+]2C [Methoxy-PMS]	2097	4514	6611	–	–	1-D Distance.npi (Rlig1-AMP [2]; [4]): 71.83
COC(=O)Cc1ccc(C(C)(C)C)cc1 [Methyl p-tert-butylphenylacetate]	2067	8807	10874	–	70.3748	–
C/C1=C2/[N-][C@H]([C@H](CC(N)=O)[C@@]2(C)CCC(=O)NC[C@H](C)OP(=O)([O-])O[C@H]2[C@@H](O)[C@@H](n3cnc4cc(C)c(C)cc43)O[C@@H]2CO)[C@]2(C)N=C(/C(C)=C3N=C(/C=C4N=C1[C@@H](CCC(N)=O)C\4(C)C)[C@@H](CCC(N)=O)[C@]\3(C)CC(N)=O)[C@@H](CCC(N)=O)[C@]2(C)CC(N)=O.[CH3-].[Co+3] [Methylcobalamin]	–	–	–	–	–	1-D Distance.npi (Rlig1-AMP [2]; [8]): 89.4559; 1-D Distance (Rlig1-AMP [2]; [9]): 977; Raw data [w Enyzm] (Rlig1-AMP [2]; sheet HTS hits, with enzyme): 4140; Raw data [w/o Enzym] (Rlig1-AMP [2]; sheet HTS hits, without enzyme): 5117
CN(C)c1ccc2nc3ccc(=[N+](C)C)cc-3sc2c1.O.O.O.[Cl-] [Methylene blue (trihydrate)]	–	6070	–	1051	–	1-D Distance.npi (Rlig1-AMP [2]; [5]): 83.8926
O=C(NCCCCCCCCCC[P+](c1ccccc1)(c1ccccc1)c1ccccc1)c1nn(Cc2ccc(Cl)cc2Cl)c2ccccc12.[Br-] [Mito-LND]	–	5993	4259	1734	–	1-D Distance.npi (Rlig1-AMP [2]; [5]): 74.0964
Cl.NC(CO)(CO)CCc1ccc(Sc2cccc(OCc3ccccc3)c2)cc1Cl [Mocravimod (hydrochloride)]	–	8286	8462	176	–	1-D Distance.npi (Rlig1-AMP [2]; [5]): 104.362
COc1cc(/C=C/C(=O)NCC(O)c2ccc(O)cc2)ccc1O (stereo not shown) [N-Feruloyloctopamine]	–	–	–	–	–	1-D Distance.npi (Rlig1-AMP [2]; [8]): 70.0499; 1-D Distance (Rlig1-AMP [2]; [9]): 1918; Raw data [w Enyzm] (Rlig1-AMP [2]; sheet HTS hits, with enzyme): 9094; Raw data [w/o Enzym] (Rlig1-AMP [2]; sheet HTS hits, without enzyme): 11012
NC[C@@H]1O[C@H](O[C@H]2[C@@H](O)[C@H](O[C@@H]3[C@@H](O)[C@H](N)C[C@H](N)[C@H]3O[C@H]3O[C@H](CN)[C@@H](O)[C@H](O)[C@H]3N)O[C@@H]2CO)[C@H](N)[C@@H](O)[C@@H]1O.O=S(=O)(O)O [Neomycin (sulfate)]	482	7973	8455	–	97.3447	–
CCCCCOc1ccccc1/C(=C\SC)n1ccnc1.Cl [Neticonazole (hydrochloride)]	–	9255	10970	1715	–	1-D Distance.npi (Rlig1-AMP [2]; [5]): 74.1423
Cl.Cl.Cn1cc(NC(=O)c2cc(NC(=O)CN=C(N)N)cn2C)cc1C(=O)NCCC(=N)N [Netropsin (dihydrochloride)]	1774	8749	–	–	75.4127	–
CC1CS(=O)(=O)CCN1/N=C/c1ccc([N+](=O)[O-])o1 (stereo not shown) [Nifurtimox]	1863	7893	–	–	–	–

Compound	1-D Distance (Rlig1-AMP [2]; [3])	Raw data [w Enyzm] (Rlig1-AMP [2]; HTS hits, with enzyme)	Raw data [w/o Enzym] (Rlig1-AMP [2]; HTS hits, without enzyme)	1-D Distance (Rlig1-AMP [2]; [6])	1-D Distance.npi (Rlig1-AMP [2]; [7])	further results
CCCCCCCCN=c1ccn(CCCCCCCCCCn2ccc(=NCCCCCCCC)cc2)cc1.Cl.Cl [Octenidine (dihydrochloride)]	1500	8818	7318	–	76.2265	–
Cl[TeH]1(Cl)(Cl)OCCO1 [Ossirene]	1663	4805	6468	–	–	–
NC[C@@H]1O[C@H](O[C@H]2[C@@H](O)[C@H](O[C@@H]3[C@@H](O)[C@H](N)C[C@H](N)[C@H]3O[C@H]3O[C@H](CO)[C@@H](O)[C@H](O)[C@H]3N)O[C@@H]2CO)[C@H](N)[C@@H](O)[C@@H]1O.O=S(=O)(O)O [Paromomycin (sulfate)]	1220	8444	9664	–	82.0351	–
COS(=O)(=O)[O-].C[n+]1c2ccccc2nc2ccccc21 [Phenazine (methylsulfate)]	–	2478	3897	1419	–	1-D Distance.npi (Rlig1-AMP [2]; [5]): 78.9166
c1cnc(N2CCN(Cc3ccc4c(c3)OCO4)CC2)nc1 [Piribedil]	–	9369	11071	1702	–	–
NCCNc1ccc(NCCN)c2c1C(=O)c1ccncc1C2=O.O=C(O)/C=C\C(=O)O.O=C(O)/C=C\C(=O)O [Pixantrone (dimaleate)]	–	4061	5199	1138	–	1-D Distance.npi (Rlig1-AMP [2]; [5]): 84.4919
CC(C)c1cccc(C(C)C)c1O [Propofol]	–	–	–	–	–	1-D Distance (Rlig1-AMP [2]): 1959; Raw data [w Enyzm] (Rlig1-AMP [2]): 8754; Raw data [w/o Enzym] (Rlig1-AMP [2]): 10713
CCC(O)C(=O)[O-].[Na+] (stereo not shown) [Sodium 2-hydroxybutanoate]	1888	8789	10677	–	73.0807	–
O.O=C1C=CC[C@@H]2[C@H]3CCCN4CCC[C@@H](CN12)[C@@H]34 [Sophocarpine (monohydrate)]	1834	8885	10719	–	71.833	–
COc1cc(S(=O)(=O)[O-])ccc1O.[K+] [Sulfogaiacol]	–	–	–	–	–	1-D Distance.npi (Rlig1-AMP [2]; [8]): 81.4409; 1-D Distance (Rlig1-AMP [2]; [9]): 1427; Raw data [w Enyzm] (Rlig1-AMP [2]; sheet HTS hits, with enzyme): 8908; Raw data [w/o Enzym] (Rlig1-AMP [2]; sheet HTS hits, without enzyme): 10335
Cn1ncnc2c(=O)n(C)c(=O)nc1-2 [Toxoflavin]	1019	16186	17205	–	–	1-D Distance.npi (Rlig1-AMP [2]; [4]): 89.8188
C/C=C/c1cc(OC)c(OC)cc1OC [alpha-Asarone]	1762	8891	10653	–	73.1231	–
LL-37, human (TFA)	–	6495	6396	99	–	1-D Distance.npi (Rlig1-AMP [2]; [5]): 104.017
Lactoferrin (17-41) (acetate) (TKCFQWQRNMRKVRGPPVSCIKRDS; ends and bridges not checked; also: acetate salt; UniProt P02788 36-60, looked up, fragment)	1421	8755	10176	–	74.4696	–
Plicamycin	–	9254	11211	1957	–	–
Verteporfin	1236	1492	2728	–	82.5479	–
Vitamin B12	580	5329	5909	–	94.3021	–
